Assay results as given in patent publication US20240190880A1 (THE REGENTS OF THE UNIVERSITY OF MICHIGAN, priority 2021, published 2024).

Target: T1, ER (Homo sapiens, UniProt P03372)
T1 construct: host or cells: T47D and MCF7 human breast cancer cells
T1 sequence (P03372 1-595): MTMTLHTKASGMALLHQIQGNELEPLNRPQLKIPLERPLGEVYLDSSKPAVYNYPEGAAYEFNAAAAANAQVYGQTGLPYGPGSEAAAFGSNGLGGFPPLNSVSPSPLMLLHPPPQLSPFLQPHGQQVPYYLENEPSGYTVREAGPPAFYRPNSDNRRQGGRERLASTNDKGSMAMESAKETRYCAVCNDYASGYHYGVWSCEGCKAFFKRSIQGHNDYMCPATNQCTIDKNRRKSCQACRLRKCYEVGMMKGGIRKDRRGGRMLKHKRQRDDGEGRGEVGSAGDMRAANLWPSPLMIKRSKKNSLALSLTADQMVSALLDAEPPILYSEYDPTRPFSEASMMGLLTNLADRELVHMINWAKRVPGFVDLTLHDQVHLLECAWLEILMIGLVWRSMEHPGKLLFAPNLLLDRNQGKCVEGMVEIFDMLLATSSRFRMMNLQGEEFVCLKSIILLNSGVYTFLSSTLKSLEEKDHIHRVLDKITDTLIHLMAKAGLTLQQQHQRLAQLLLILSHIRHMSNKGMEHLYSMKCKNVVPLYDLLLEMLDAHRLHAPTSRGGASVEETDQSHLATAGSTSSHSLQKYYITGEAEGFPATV
Assay: ER degradation activity, in-cell western blot analysis in T47D cells
Type: cell-based
Conditions: 16 hours, Table A does not say which cell line (T47D or MCF7), read-out: Potency (DC50)
Method in brief: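 T47D cells cultured in DMEM with 10% FBS, treated with compounds (final 0.5% DMSO) for 16 h. ER level measured by in-cell western with anti-rabbit-680/anti-mouse-800 near-infrared detection. Relative ER percentage calculated against untreated and DMSO-treated wells set as 100%.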

Compound | DC50
C[C@@H]1Cc2c([nH]c3ccccc23)[C@@H](c2c(F)cc(N3CC(CC(=O)N4CC(N5Cc6cc7c(cc6C5)C(=O)N(C5CCC(=O)NC5=O)C7)C4)C3)cc2F)N1CC(F)F (stereo partly drawn) [E 134, 3-(6-(1-(2-(1-(4-((1R,3R)-2-(2,2-difluoroethyl)-3-methyl-2,3,4,9-tetrahydro-1H-pyrido[3,4-b]indol-1-yl)-3,5-difluorophenyl)azetidin-3-yl)acetyl)azetidin-3-yl)-1-oxo-3,5,6,7-tetrahydropyrrolo[3,4-f]isoindol-2(1H)-yl)piperidine-2,6-dione] | 10 to 100 nM
C[C@@H]1Cc2cc(O)ccc2[C@@H](c2c(F)cc(N3CCC4(CCN(C(=O)CN5Cc6cc7c(cc6C5)C(=O)N(C5CCC(=O)NC5=O)C7)C4)CC3)cc2F)N1CC(C)(F)F (some centres unmarked) [E 138] | 10 to 100 nM
C[C@@H]1Cc2c([nH]c3ccccc23)[C@@H](c2c(F)cc(N3CCC(CN4Cc5cc6c(cc5C4)C(=O)N(C4CCC(=O)NC4=O)C6)CC3)cc2F)N1CC(F)F (stereo partly drawn) [E 147, 3-(6-((1-(4-((1R,3R)-2-(2,2-difluoroethyl)-3-methyl-2,3,4,9-tetrahydro-1H-pyrido[3,4-b]indol-1-yl)-3,5-difluorophenyl)piperidin-4-yl)methyl)-1-oxo-3,5,6,7-tetrahydropyrrolo[3,4-f]isoindol-2(1H)-yl)piperidine-2,6-dione] | > 100 nM
O=C1CCC(N2C(=O)c3cc4c(cc3C2=O)CN(C2CCC3(CC2)CCN(c2ccc([C@@H]5c6ccc(O)cc6CC[C@@H]5c5ccccc5)cc2)CC3)C4)C(=O)N1 (stereo partly drawn) [E 160, 2-(2,6-dioxopiperidin-3-yl)-6-(3-(4-((1R,2S)-6-hydroxy-2-phenyl-1,2,3,4-tetrahydronaphthalen-1-yl)phenyl)-3-azaspiro[5.5]undecan-9-yl)-6,7-dihydropyrrolo[3,4-f]isoindole-1,3(2H,5H)-dione] | > 100 nM
O=C1CCC(N2C(=O)c3cc4c(cc3C2=O)CCN(CC(=O)N2CCC3(CC2)CCN(c2ccc([C@@H]5c6ccc(O)cc6CC[C@@H]5c5ccccc5)cc2)CC3)CC4)C(=O)N1 (stereo partly drawn) [E 166, 2-(2,6-dioxopiperidin-3-yl)-7-(2-(9-(4-((1R,2S)-6-hydroxy-2-phenyl-1,2,3,4-tetrahydronaphthalen-1-yl)phenyl)-3,9-diazaspiro[5.5]undecan-3-yl)-2-oxoethyl)-6,7,8,9-tetrahydroazepino[4,5-f]isoindole-1,3(2H,5H)-dione] | > 100 nM
O=C1CCC(N2C(=O)c3cc4c(cc3C2=O)CCN(C(=O)CN2CCC3(CC2)CCN(c2ccc([C@@H]5c6ccc(O)cc6CC[C@@H]5c5ccccc5)cc2)CC3)CC4)C(=O)N1 (stereo partly drawn) [E 167, 2-(2,6-dioxopiperidin-3-yl)-7-(2-(9-(4-((1R,2S)-6-hydroxy-2-phenyl-1,2,3,4-tetrahydronaphthalen-1-yl)phenyl)-3,9-diazaspiro[5.5]undecan-3-yl)acetyl)-6,7,8,9-tetrahydroazepino[4,5-f]isoindole-1,3(2H,5H)-dione] | > 100 nM
O=C1CCC(N2C(=O)c3cc4c(cc3C2=O)CCN(CC(=O)N2CC3(CCN(c5ccc([C@@H]6c7ccc(O)cc7CC[C@@H]6c6ccccc6)cc5)CC3)C2)CC4)C(=O)N1 (stereo partly drawn) [E 169, 2-(2,6-dioxopiperidin-3-yl)-7-(2-(7-(4-((1R,2S)-6-hydroxy-2-phenyl-1,2,3,4-tetrahydronaphthalen-1-yl)phenyl)-2,7-diazaspiro[3.5]nonan-2-yl)-2-oxoethyl)-6,7,8,9-tetrahydroazepino[4,5-f]isoindole-1,3(2H,5H)-dione] | > 100 nM
O=C1CCC(N2C(=O)c3cc4c(cc3C2=O)CCN(C(=O)CN2CC3(CCN(c5ccc([C@@H]6c7ccc(O)cc7CC[C@@H]6c6ccccc6)cc5)CC3)C2)CC4)C(=O)N1 (stereo partly drawn) [E 170, 2-(2,6-dioxopiperidin-3-yl)-7-(2-(7-(4-((1R,2S)-6-hydroxy-2-phenyl-1,2,3,4-tetrahydronaphthalen-1-yl)phenyl)-2,7-diazaspiro[3.5]nonan-2-yl)acetyl)-6,7,8,9-tetrahydroazepino[4,5-f]isoindole-1,3(2H,5H)-dione] | > 100 nM
O=C1CCC(N2C(=O)c3cc4c(cc3C2=O)CN(CC(=O)N2CC3(CCN(c5ccc([C@@H]6c7ccc(O)cc7CC[C@@H]6c6ccccc6)cc5)CC3)C2)CCC4)C(=O)N1 (stereo partly drawn) [E 171, 2-(2,6-dioxopiperidin-3-yl)-6-(2-(7-(4-((1R,2S)-6-hydroxy-2-phenyl-1,2,3,4-tetrahydronaphthalen-1-yl)phenyl)-2,7-diazaspiro[3.5]nonan-2-yl)-2-oxoethyl)-6,7,8,9-tetrahydroazepino[3,4-f]isoindole-1,3(2H,5H)-dione] | > 100 nM
O=C1CCC(N2C(=O)c3cc4c(cc3C2=O)CCN(CC(=O)N2CCC3(CC2)CCN(c2ccc([C@@H]5c6ccc(O)cc6CC[C@@H]5c5ccc(F)cc5)cc2)CC3)CC4)C(=O)N1 (stereo partly drawn) [E 183, 2-(2,6-dioxopiperidin-3-yl)-7-(2-(9-(4-((1R,2S)-2-(4-fluorophenyl)-6-hydroxy-1,2,3,4-tetrahydronaphthalen-1-yl)phenyl)-3,9-diazaspiro[5.5]undecan-3-yl)-2-oxoethyl)-6,7,8,9-tetrahydroazepino[4,5-f]isoindole-1,3(2H,5H)-dione] | > 100 nM

Now from value to compound:

DC50 | Compound
< 10 nM | C[C@@H]1Cc2c([nH]c3ccccc23)[C@@H](c2c(F)cc(N3CCC(CN4CC5(CC(N6Cc7cc8c(cc7C6)C(=O)N(C6CCC(=O)NC6=O)C8=O)C5)C4)CC3)cc2F)N1CC(F)F (stereo partly drawn) [E 131, 6-(2-((1-(4-((1R,3R)-2-(2,2-difluoroethyl)-3-methyl-2,3,4,9-tetrahydro-1H-pyrido[3,4-b]indol-1-yl)-3,5-difluorophenyl)piperidin-4-yl)methyl)-2-azaspiro[3.3]heptan-6-yl)-2-(2,6-dioxopiperidin-3-yl)-6,7-dihydropyrrolo[3,4-f]isoindole-1,3(2H,5H)-dione]
10 to 100 nM | C[C@@H]1Cc2c([nH]c3ccccc23)[C@@H](c2c(F)cc(N3CCC(CN4CCC5(CC4)CC(N4Cc6cc7c(cc6C4)C(=O)N(C4CCC(=O)NC4=O)C7=O)C5)CC3)cc2F)N1CC(F)F (stereo partly drawn) [E 132, 6-(7-((1-(4-((1R,3R)-2-(2,2-difluoroethyl)-3-methyl-2,3,4,9-tetrahydro-1H-pyrido[3,4-b]indol-1-yl)-3,5-difluorophenyl)piperidin-4-yl)methyl)-7-azaspiro[3.5]nonan-2-yl)-2-(2,6-dioxopiperidin-3-yl)-6,7-dihydropyrrolo[3,4-f]isoindole-1,3(2H,5H)-dione]
10 to 100 nM | C[C@@H]1Cc2c([nH]c3ccccc23)[C@@H](c2c(F)cc(N3CCC(CN4CCC5(CCC(N6Cc7cc8c(cc7C6)C(=O)N(C6CCC(=O)NC6=O)C8=O)C5)CC4)CC3)cc2F)N1CC(F)F (stereo partly drawn) [E 133, 6-(8-((1-(4-((1R,3R)-2-(2,2-difluoroethyl)-3-methyl-2,3,4,9-tetrahydro-1H-pyrido[3,4-b]indol-1-yl)-3,5-difluorophenyl)piperidin-4-yl)methyl)-8-azaspiro[4.5]decan-2-yl)-2-(2,6-dioxopiperidin-3-yl)-6,7-dihydropyrrolo[3,4-f]isoindole-1,3(2H,5H)-dione]
< 10 nM | C[C@@H]1Cc2c([nH]c3ccccc23)[C@@H](c2c(F)cc(N3CCC4(CCN(C(=O)CN5Cc6cc7c(cc6C5)C(=O)N(C5CCC(=O)NC5=O)C7=O)CC4)C3)cc2F)N1CC(F)F (stereo partly drawn) [E 135, 6-(2-(2-(4-((1R,3R)-2-(2,2-difluoroethyl)-3-methyl-2,3,4,9-tetrahydro-1H-pyrido[3,4-b]indol-1-yl)-3,5-difluorophenyl)-2,8-diazaspiro[4.5]decan-8-yl)-2-oxoethyl)-2-(2,6-dioxopiperidin-3-yl)-6,7-dihydropyrrolo[3,4-f]isoindole-1,3(2H,5H)-dione]
< 10 nM | O=C1CCC(N2C(=O)c3cc4c(cc3C2=O)CN(CC(=O)N2CC3(CCN(c5ccc([C@@H]6c7ccc(O)cc7CC[C@@H]6c6ccccc6)cc5)CC3)C2)C4)C(=O)N1 (stereo partly drawn) [E 148, 2-(2,6-dioxopiperidin-3-yl)-6-(2-(7-(4-((1R,2S)-6-hydroxy-2-phenyl-1,2,3,4-tetrahydronaphthalen-1-yl)phenyl)-2,7-diazaspiro[3.5]nonan-2-yl)-2-oxoethyl)-6,7-dihydropyrrolo[3,4-f]isoindole-1,3(2H,5H)-dione]
< 10 nM | O=C1CCC(N2C(=O)c3cc4c(cc3C2=O)CN(CC(=O)N2CCC3(CC2)CCN(c2ccc([C@@H]5c6ccc(O)cc6CC[C@@H]5c5ccccc5)cc2)CC3)C4)C(=O)N1 (stereo partly drawn) [E 149, 2-(2,6-dioxopiperidin-3-yl)-6-(2-(9-(4-((1R,2S)-6-hydroxy-2-phenyl-1,2,3,4-tetrahydronaphthalen-1-yl)phenyl)-3,9-diazaspiro[5.5]undecan-3-yl)-2-oxoethyl)-6,7-dihydropyrrolo[3,4-f]isoindole-1,3(2H,5H)-dione]
< 10 nM | O=C1CCC(N2C(=O)c3cc4c(cc3C2=O)CN(CC(=O)N2CCC3(CC2)CCN(c2ccc(C(=C(CCCl)c5ccccc5)c5ccc(O)cc5)cc2)CC3)C4)C(=O)N1 (centres unmarked) [E 182, 6-(2-(9-(4-(4-chloro-1-(4-hydroxyphenyl)-2-phenylbut-1-en-1-yl)phenyl)-3,9-diazaspiro[5.5]undecan-3-yl)-2-oxoethyl)-2-(2,6-dioxopiperidin-3-yl)-6,7-dihydropyrrolo[3,4-f]isoindole-1,3(2H,5H)-dione]
